Several values for one entry are separate records, joined by “and”; a condition that tells them apart may be missing. Identical values can stand only once. Like-named read-outs stand apart in the source and are kept apart here. Square brackets hold non-standard residues; d marks the D form. Ends that are not written are not given here. Cit = NC(=O)NCCC[C@H](N)C(=O)O
Legend:
[1] = test system: PhTET2 and PhTET3; assay: Aminopeptidase cleavage of N-terminal amino acids during dynamic sequencing (RS/NRS durations); format: biochemical, P. horikoshii
Description: To evaluate the kinetic principles of the dynamic sequencing method when applied to diverse sequences, the synthetic peptide DQQRLIFAG (SEQ ID NO: 794), corresponding to a segment of human ubiquitin, was characterized (FIGS. 3A-3D). Sequencing reactions were performed using a combination of three differentially-labeled recognizers—PS610, PS961, and PS691—and two aminopeptidases—PhTET2 and PhTET3 (Materials and Methods). The example trace in FIG. 3A starts with an NRS that corresponds to the time interval during which residues in the initial DQQ motif are present at the N-terminus. The first RS starts at 120 min, upon exposure of N-terminal arginine to recognition by PS691. Subsequent cleavage events sequentially expose N-terminal leucine, isoleucine, and phenylalanine to their corresponding recognizers, with fast transitions (average <10 s) from one RS to the next. The transition from leucine to isoleucine recognition by PS961 is readily identified as a sharp change in average PD. This overall pattern is replicated across many instances of sequencing of the same peptide, with similar PD statistics across traces, as each peptide molecule follows the same reaction pathway over the course of the sequencing run (FIGS. 3B-3C).
The distribution of RS durations across an ensemble of replicate traces defines the rate of cleavage of each recognizable NAA. […] The distribution of NRS durations reports the cleavage rate of a run of one or more non-recognized NAAs. The average NRS duration for the initial DQQ motif was 153 min (FIG. 3D). Average cleavage rates are a key parameter and are controlled by the aminopeptidase concentration in the assay (FIGS. 8D-8E). Given the exponential behavior, average RS durations of 10 to 40 min were targeted to provide sufficient time for pulsing data collection, avoid missed RSs due to rapid cleavage, and minimize excessively long RS durations. It was found helpful to visualize the sequencing profiles of peptides as kinetic signature plots—simplified trace-like representations of the time course of complete peptide sequencing containing the median PD for each RS, and the average duration of each RS and NRS (FIG. 3E). These highly characteristic features provide a wealth of sequence-dependent information for mapping traces from peptides to their proteins of origin.
A second chip check was then performed. […] Data was recorded for 15 min.

[2] = test system: amino acid recognizers; assay: Sequencing of β-amyloid wild type and variant peptides, average pulse width; format: binding; details: for Average Pulse Width, tripeptide LVX: when sequencing L
Text: Aspects of the technology described herein may be used for protein preparation, peptide library preparation, peptide sequencing and peptide profiling of synthetic samples of ß-amyloid. In this example, the wild type (LVFFAE (SEQ ID NO: 827)) and variants (17LVFFAK22 (SEQ ID NO: 828), 17LVFFGK22 (SEQ ID NO: 829), 17LVFFAG22 (SEQ ID NO: 830), and 17LVPFAE22 (SEQ ID NO: 831)) of β-amyloid were digested and labeled for further analysis. Alternatively, β-amyloid may be purified from common sources, such as cerebrospinal fluid (CSF), for downstream analysis.
A chip including aspects of the technology described herein was used for the downstream sequencing of the sample material. The chip contained millions of wells, each of which acted as an independent sequencing machine. Once the sample was loaded, cloud technology was used to set up the sequencing run and collect all the data for visualization. Once collected in the cloud, a set of proprietary algorithms, which can identify amino acids based on the specialized optical pulse patterns of each binding event, determined the sequence of the peptide and mapped that sequence back to a specific protein or protein variant.
Here, the protein sequencing technology and analysis pipeline was successfully used to distinguish a variety of clinically significant ß-amyloid point mutations. The sequencing traces containing pulse patterns of the variants, 17LVFFAK22 (SEQ ID NO: 828), 17LVFFGK22 (SEQ ID NO: 829), 17LVFFAG22 (SEQ ID NO: 830), and 17LVPFAE22 (SEQ ID NO: 831), were compared to the wild type, 17LVFFAE22 (SEQ ID NO: 827). Software automatically identified pulses containing the same intensity, lifetime, and kinetics, which determined a recognition segment for a specific amino acid. Each recognition segment was color coded based on the N-terminal amino acid, and the collection of recognition segments provided a characteristic signature of the peptide.
Time domain sequencing functionality can observe sequence changes indirectly during peptide profiling. The specific PTMs and folding of each variant cause them to display distinctly different patterns, which can then be inferred via alterations in pulse width. For example, a point mutation in a sequence—at the N-terminal end, or at the penultimate and antepenultimate positions, of the peptide—can generate an altered pulse pattern, compared to another sequence.

[3] = test system: PS1223; assay: Dynamic single-molecule sequencing, recognition by PS1223; format: binding; details: recognizer PS1223, recognition of the N-terminal amino acid
Sequence of PS1223 (as listed by the source): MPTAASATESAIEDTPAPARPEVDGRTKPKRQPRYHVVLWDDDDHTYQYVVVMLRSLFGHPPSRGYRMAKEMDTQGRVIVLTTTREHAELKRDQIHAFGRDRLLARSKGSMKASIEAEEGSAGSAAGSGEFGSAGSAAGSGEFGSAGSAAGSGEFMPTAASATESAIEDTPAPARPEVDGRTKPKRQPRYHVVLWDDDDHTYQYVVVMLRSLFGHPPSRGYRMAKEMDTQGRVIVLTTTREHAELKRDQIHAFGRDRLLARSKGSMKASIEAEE
Description: Sequencing reactions using the recognizers PS610 (FYW), PS1220 (R), and PS1223 (LIV) were performed separately for the QP706 and QP1073 peptide fragments. Each recognizer was labeled with a unique dye and/or unique number of dyes. A scatter plot of bin ratio v. pulse duration is shown for the QP706 peptide fragment in FIG. 18A and for the QP1073 peptide fragment in FIG. 18B. In the plot of FIG. 18A, three clusters corresponding to FLE, LEQ, and RFL segments are visible. […] In the plot of FIG. 18B, two clusters corresponding to FLE and LEQ segments are visible, but there is no cluster corresponding to RFL.
In this example, sequencing reactions were conducted for 4 pairs of unmodified and citrullinated peptides: QP1028 & QP1029, QP1030 & QP1031, QP1032 & QP1033, and QP707 & QP789. […] For the QP1028 & QP1029 and QP1030 & QP1031 pairs, sequencing reactions were conducted using the PS610 (FYW) recognizer. For the QP1032 & QP1033 and QP707 & QP789 pairs, sequencing reactions were conducted using the PS1223 (LIV) recognizer.

[4] = test system: PS961; assay: Dynamic single-molecule sequencing, recognition by PS961; format: binding, Planctomycetes; details: arginine or citrulline at position 2
Sequence of PS961 (as listed by the source): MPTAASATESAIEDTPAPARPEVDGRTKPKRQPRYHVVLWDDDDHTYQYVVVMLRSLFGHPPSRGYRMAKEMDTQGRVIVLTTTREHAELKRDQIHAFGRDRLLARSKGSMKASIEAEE
Description: The semiconductor chip was placed in the sequencing device and a chip check was performed to test electronic circuit function and to optimize laser coupling alignment. The chip was then removed from the device socket and the chip was washed twice with 50 μL of 70% isopropanol, followed by four washes with 30 μL of wash buffer (50 mM MOPS pH 8.0, 60 mM potassium acetate, 50 mM glucose, 20 mM magnesium acetate, and surfactant mix) through a flow cell attached to the chip. A second chip check was then performed. The laser was then blocked via an integrated software-controlled shutter, peptide complex was added to a final concentration of 1-10 nM and mixed thoroughly, and the chip was incubated for 15 min. The chip was then washed six times with wash buffer, followed by addition of an imaging solution (wash buffer with 5 mM Trolox and an oxygen scavenging system). The laser was unblocked and the occupancy percentage (target 10-30%, Poisson distributed) was recorded by acquiring a photobleaching signal from a fluorophore attached to the peptide complex during 5 min of laser illumination. For NAA recognition-only assays, after peptide loading, labeled recognizer was added to a final concentration of 50 nM PS610, 100 nM PS691, or 250 nM PS961 (as indicated according to the experiment), and data was recorded for 10 hours. For dynamic sequencing assays, after peptide loading, a mixture of labeled recognizers was added to obtain final concentrations of 50 nM PS610, 100 nM PS691, and 250 nM PS961. Data was recorded for 15 min. The laser was then blocked briefly and aminopeptidases were added to the sequencing reaction via the flow cell and mixed thoroughly (final concentration 2-8 μM PhTET2 and/or 20-80 μM PhTET3, as indicated according to the experiment). The laser was then unblocked, and data was recorded for 10 hours. For all runs, 30 μL of mineral oil was added to fluid reservoirs at each port of the flow cell to prevent evaporation during the run.
The measured signal on-chip comprises various noise components, the most dominant one being due to fluorescent emissions from diffusing recognizers in the reaction chamber. The pulse caller algorithm for a given reaction chamber starts by estimating the statistical properties of this background noise component. Once an estimate within certain error bounds has been established, the algorithm works in an online fashion observing new frames of data as they are generated. At each point in time, the algorithm maintains state indicating whether the signal is due to the background component only or a pulse from a recognizer-NAA interaction is being observed. The state transition from background to pulse is triggered using an edge detection test where the shift in signal is expected to be significant with respect to the background component's statistical distribution. The state transition from pulse to background is triggered when a small window of the most recent frames of the signal appears to conform to the background component's distribution again. The algorithm maintains an updated model of the background component as new background frames are observed. This provides robustness against drift in the signal intensity together with a feedback control loop that maintains a stable optical coupling of the laser into the chip based on any such detected drift. As detected pulses can be due to true recognizer-to-dipeptide interaction events as well as other occasional transient noise spikes, a downstream filter layer is employed to test the significance of pulse events based on their duration, intensity, and noise patterns within the context of the full timeline of the run and the entire dataset of reaction chambers.
Initial regions are determined by performing a sliding window calculation of pulse rate along the time dimension of a series of pulses. Regions with a mean pulse rate >1 pulse/min are then subdivided according to a greedy bisection approach.

[5] = biological target: T1, PS621 (Kluyveromyces lactis, UniProt O60014, E174T/N105S/N176F/R116K/S153T/V146T); assay: Dynamic single-molecule sequencing, recognition by PS621; format: binding; details: unmodified arginine peptide, average of 10 sequencing reactions
T1 construct: PS621; […]
T1 sequence (O60014 other isoform, or with tags, fused parts or gaps N105S/R116K/V146T/S153T/E174T/N176F): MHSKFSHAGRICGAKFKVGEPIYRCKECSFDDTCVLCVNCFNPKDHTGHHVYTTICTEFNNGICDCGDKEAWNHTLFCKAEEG
Text: PTM detection involved isolating peptides and subjecting them to a real-time single-molecule protein sequencing reaction. Proteins were first digested into peptide fragments and conjugated C-terminally to macromolecular linkers. The peptide complexes were immobilized at the bottom of nanoscale wells on a semiconductor chip, resulting in single peptide molecules with exposed N-termini ready for sequencing. During the sequencing reaction, the surface-immobilized peptides were exposed to a solution containing dye-labeled NAA recognizers that bound on and off to their cognate NAAs with characteristic kinetic properties. Aminopeptidases in solution sequentially removed individual NAAs to expose subsequent amino acids for recognition. Fluorescence lifetime, intensity, and kinetic data were collected in real time and analyzed to determine amino acid sequence and PTM content.
The trace-level output included distinct pulsing regions called recognition segments (RSs); each RS corresponded to a period of time between aminopeptidase cleavage events during which an NAA recognizer bound on and off to its exposed target NAA. Chemical modifications to a target NAA or to a nearby downstream amino acid can modulate recognizer affinity, resulting in a characteristic change in the average pulse duration (PD) during an RS relative to an unmodified peptide. These modifications can also influence the rate of aminopeptidase cleavage of an NAA, resulting in a characteristic change in average duration of the corresponding RS.
Synthetic peptides corresponding to residues 69 to 76 of P38MAPKa were generated in three versions containing either arginine, ADMA, or SDMA at position 2: YRELRLLK (SEQ ID NO: 834), YRADMAELRLLK (SEQ ID NO: 835), and YRSDMAELRLLK (SEQ ID NO: 836). Each peptide was sequenced using three recognizers—PS610 (F, Y, W), PS961 (L, I, V), and PS621 (R)—and data were analyzed to identify RSs, determine the mean PD of each RS, and characterize the kinetic signature of each peptide.
In this example, sequencing reactions were performed using PS621 (R), PS610 (FYW), and PS961 (LIV) recognizers for 9 pairs of peptides. Each pair comprised one peptide comprising an unmodified arginine residue followed by a non-arginine amino acid (referred to as an R-X peptide) and one peptide having an identical sequence except that the unmodified arginine was modified to be ADMA (referred to as an ADMA-X peptide).

[6] = RS duration across replicate traces

Substance: DQQRLIFAG [synthetic peptide corresponding to a segment of human ubiquitin]
- Average NRS duration for the initial DQQ motif [1]: 153 min
- Average cleavage time, N-terminal arginine [1, 6]: 31 min
- Average cleavage time, N-terminal isoleucine [1, 6]: 39 min
- Average cleavage time, N-terminal leucine [1, 6]: 54 min
- Average cleavage time, N-terminal phenylalanine [1, 6]: 86 min

Substance: E22Q: β-amyloid variant, tripeptide FAQ (Amyloid-beta protein 42; UniProt P05067 691-693, looked up, fragment E22Q) [Peptide E22Q]
- Average Pulse Width, tripeptide FXX [2]: 2.67 (FAQ) seconds

Substance: ICitLAFAYPDDDK (I[Cit]LAFAYPDDDK-NH2; also: C-terminal azidolysine (general statement for all synthetic peptides)) [QP1033]
- Pulse Width [3]: 0.84 s

Substance: IRLAFAYPDDDK [QP1032]
- Pulse Width [3]: 0.58 s

Substance: LRLAFAYPDDDK [QP707]
- Median PD of recognition of N-terminal leucine by PS961 [4]: 0.43 s
- Pulse Width [3]: 0.42 s
- RS R-X ([5]; RS duration): 17.3 min
- PW of R-X [5]: 0.47 s

Substance: LVFFAE [WT, β-amyloid wild type]
- Average Pulse Width, tripeptide FXX [2]: 2.43 (FAE) seconds
- Average Pulse Width, tripeptide FXX ([2]; listed as wild type): 2.43 s
- Average Pulse Width, tripeptide LVX [2]: 3.26 (LVF) seconds
- Average Pulse Width, tripeptide LVX ([2]; listed as wild type): 3.26 s

Substance: LVFFAG [Peptide E22G, β-amyloid variant]
- Average Pulse Width, tripeptide FXX [2]: 2.99 (FAG) seconds

Substance: LVFFAK [Peptide E22K, β-amyloid variant]
- Average Pulse Width, tripeptide FXX [2]: 2.79 (FAK) seconds

Substance: LVPFAE [Peptide F19P, β-amyloid variant]
- Average Pulse Width, tripeptide LVX [2]: 1.86 seconds and 1.86 (LVP) seconds

Reference: patent US20230213527A1, “COMPOSITIONS AND METHODS FOR POLYPEPTIDE ANALYSIS” (Quantum-Si Incorporated, priority 2021, published 2023)
